Laboratory results as given in patent EP0185961A2, “1-Phenyl-imidazole-5-carboxylic acid derivatives, process for their preparation and their use as growth regulators” (HOECHST AKTIENGESELLSCHAFT, priority 1984, dated 1986).

Experiments:
[1] = system: Sojabohnen; settings: in vivo
Source text: (§4) Etwa 10 cm große Sojabohnen werden mit den Wirkstoffzubereitungen tropfnaß bespritzt. Nach 3 Wochen wird bonitiert.
(§5) Die Wuchshemmung wird als prozentualer Wert ermittelt, wobei 100% den Stillstand des Wachstums und 0% ein Wachstum entsprechend dem der unbehandelten Kontrollpflanzen bedeuten.

[2] = system: Reispflanzen; test: Growth inhibition in paddy rice, small plots; settings: Oryza sativa, 504 h, read-out: Wuchsshemmung (%)
[3] = system: Gerste; test: Growth inhibition in cereals, greenhouse tray test, sprayed at 3-leaf stage; assay type: in vivo; settings: % of growth increment of untreated controls, read-out: Wuchsshemmung in % bei Gerste; for pest or weed control at 1250 g/ha: 1,25 kg/ha; for pest or weed control at 2500 g/ha: 2,5 kg/ha
Source text: (§1) In Schalenversuchen im Gewächshaus werden junge Getreidepflanzen (Weizen, Gerste, Roggen) im 3-Blattstadium mit erfindungsgemäßen Verbindungen in verschiedenen Wirkstoffkonzentrationen (kg/ha) tropfnaß gespritzt.
(§2) Es wird außerdem die phytotoxische Wirkung der Verbindung beobachtet.

[4] = system: Sojabohnen; test: Growth inhibition in soybeans; settings: Glycine max, 504 h, read-out: Wuchsshemmung (%)
Source text: as §4, §5

[5] = system: Roggen; test: Growth inhibition in cereals, greenhouse tray test, sprayed at 3-leaf stage; assay type: in vivo; settings: % of growth increment of untreated controls, read-out: Wuchsshemmung in % bei Roggen; for pest or weed control at 1250 g/ha: 1,25 kg/ha; for pest or weed control at 2500 g/ha: 2,5 kg/ha
Source text: (§3) In Schalenversuchen im Gewächshaus werden junge Getreidepflanzen (Weizen, Gerste, Roggen) im 3-Blattstadium mit erfindungsgemäßen Verbindungen in verschiedenen Wirkstoffkonzentrationen (kg/ha) tropfnaß gespritzt. […]

[6] = system: Weizen; test: as above; assay type: in vivo; settings: % of growth increment of untreated controls (100% = growth standstill), read-out: Wuchsshemmung in % bei Weizen; for pest or weed control at 1250 g/ha: 1,25 kg/ha; for pest or weed control at 2500 g/ha: 2,5 kg/ha
Source text: as §3

[7] = system: Reispflanzen; settings: in vivo
[8] = system: Getreidepflanzen (Weizen, Gerste, Roggen); test: Phytotoxic effect observed in the cereal growth inhibition test; assay type: in vivo; settings: cereals; one cell for 2,5 and 1,25 kg/ha
Source text: as §1, §2

SMILES | Phytotox. Wirkung [1] | pest or weed control at 620 g/ha [2] [%] | pest or weed control at 1250 g/ha [2] [%] | pest or weed control at 1250 g/ha [3] [%] | pest or weed control at 2500 g/ha [3] [%] | pest or weed control at 2500 g/ha [4] [%] | pest or weed control at 1250 g/ha [5] [%] | pest or weed control at 2500 g/ha [5] [%] | pest or weed control at 1250 g/ha [6] [%] | pest or weed control at 2500 g/ha [6] [%] | Phytotox. Wirkung [7] | Phytotox. Wirkung [8]
CCc1cccc(CC)c1-n1cncc1C(=O)NO [Beispiel 68] | keine Schäden | 18 | 25 | 21 | 34 | 26 | 21 | 27 | 20 | 24 | keine Schäden | keine Schäden
CCc1cccc(CC)c1-n1cncc1C(=O)NNC(N)=O [Beispiel 70] | keine Schäden | 14 | 21 | 18 | 27 | 19 | 21 | 25 | 12 | 22 | keine Schäden | keine Schäden
CCc1cccc(CC)c1-n1cncc1C(=O)n1cncn1 [Beispiel 76] | keine Schäden | 14 | 19 | 17 | 27 | 21 | 15 | 23 | 13 | 21 | keine Schäden | keine Schäden
CCc1cccc(CC)c1-n1cncc1COCc1ccccc1C [Beispiel 95] | keine Schäden | 14 | 18 | 17 | 25 | 20 | 15 | 22 | 14 | 19 | keine Schäden | keine Schäden
CCc1cccc(CC)c1-n1cncc1C(=O)NS(=O)(=O)c1ccccc1Cl [Beispiel 103] | keine Schäden | 15 | 21 | 19 | 29 | 22 | 16 | 27 | 16 | 23 | keine Schäden | keine Schäden
CCc1cccc(CC)c1-n1cncc1C(=O)OC(=O)c1cncn1-c1c(CC)cccc1CC [Beispiel 115] | keine Schäden | 19 | 28 | 19 | 38 | 15 | 24 | 31 | 14 | 24 | keine Schäden | keine Schäden
